# Assay results published in patent publication EP0435693B1, “Pharmaceutical compositions containing 3-oxygermylpropionic acid polymers for inhibiting the degeneration of cells” (SANWA KAGAKU KENKYUSHO CO., LTD., priority 1989, dated 1991).
# Key:
# SD rats and mice = assay: Acute toxicity test, general symptoms; format: in vivo
# Text: (§1) With (a) the 3-oxygermylpropionic acid according to this invention (hereinafter called SK-818) and (b) the composition of Preparation Ex. 1, SD rats and mice were subjected to acute and subacute (chronic) toxicity tests in conventional manner. (Groups of animals, 8-10 per group, were used for experimentation).
# Between (a) SK-818 and (b) the composition of Preparation Ex. 1 there was no significant difference in acute toxicity.
# SD masculine rats = assay: Subacute toxicity, oral, three months; format: in vivo
# Procedure: as §1
# (a) SK-818 and (b) the composition of Preparation Ex. 1 were administered orally to SD masculine rats at doses of 256, 380, 640, 1300, 1600 and 4000 mg/kg/day over three months to determine the doses at which there was no toxic influence on the animals and the animals were absolutely poisoned, respectively.
# SD rats = assay: Acute toxicity test, per os, rats; format: in vivo
# Text: as §1
# MRL/1 masculine mice = assay: Prevention of spontaneous nephritis of MRL/1 mice; format: in vivo; set-up: Blood-urinary nitrogen levels, BUN: unit not given here; settings: for Blood-urinary nitrogen levels, BUN: day following the final administration
# Procedure: The action of SK-818 on preventing the development of spontaneous nephritis of MRL/1 mice (or an impairment of the functioning of the kidney asaociated with aging) was examined.
# Given amounts (0.1 mg/kg, 1.0 mg/kg and 10.0 mg/kg a day) of SK-818, in the form of a mixture of the composition of Preparation Ex. 1 with feed, were administered orally MRL/1 masculine mice of six-week age (16 for each group) twice a week over 12 weeks. In the meantime, urinary protein was measured once a week; urinary protein levels exceeding 100 mg/dl were taken as positive. Examination was then made of how many animals became positive at the respective week-ages. Moreover, blood-urinary nitrogen levels were determined on the day following the final administration to make serological/physiological and pathological estimations of the action of SK-818 on nephritis.
# The urinary protein and blood-urinary nitrogen levels were measured with Protein Pre-test (made by Wako Junyaku K.K.) and Urinary Nitrogen B-Test according to the urease/indophenol method (made by Wako Junyaku K.K.), respectively.
# rat's hepatocytes = assay: Inhibition of GPT elution from cultivated liver cells treated with hepatocyte-damaging substances; format: cell-based
# Text: The effect on relieving the culture damage induced by adding hepatocyte-damaging substances and SK-818 to hepatocyte culture systems was examined by measuring the activity of glutamic-pyruvic transaminase (GPT) eluates obtained by cellular disorders. How much the elution of GPT was inhibited was used as an index to the hepatoxicity-relieving effect.
# The following four substances were used as the hepatocyte-damaging (hepatoxic) substances. • (a) Galactosamine - "J. Natur. Prod.", 46, 841, 1983. • (b) Calcium ionophore - "Pharmacognosy", 39, 218, 1985. • (c) Cumene hydroperoxide - "Planta Med.", 51, 50, 1985. • (d) 1-Naphthylisothiocyanate.
# The extraction and culture of a single layer of rat's hepatocytes were carried out by the procedures described by Nakamura et al in "Protein, Nucleic Acid and Oxygen", Extra Number No. 24, pp. 55-74, 1981.
# Single layers of rats' hepatocytes were cultured for certain periods of time:- 0 hour for a galactosamine group, 20.5 hours for calcium ionophore and cumene hydroperoxide groups, and 14.5 hours for a 1-naph isocyanate group. Afterwards, the hepatocyte-damaging substances were added to the culture media at the respective desired concentrations:- 0.35 mM for (a); 10 »m for (b), 0.5 mM for (c) and 188 »m for (d)), which were then cultured for the respective given periods of time:- 38 hours for the group (a), 1 hour for (b), 1 hour for (c) and 12 hours for (d).
# SK-818 was dissolved in bovine embryo serum, and the serum solution was then added to each medium at the respective stages of culture by the following three methods; • (a) it was added to the pre-culture medium prior to the addition of the hepatocyte-damaging substance (called the pre-addition); • (b) it was added to the culture medium simultaneously with the addition of the hepatocyte-damaging substance (called the simultaneous addition); and • (c) it was added to the pre-culture and culture media (called the total addition).
# The activity of the GPT eluates produced by cytotoxicity in the media was measured by a GPT measuring kit. Then, GPT reductions in % were found by the following equation: [formula] wherein A is the activity in Karmen units of GPT in a culture medium to which no hepatocyte-damaging substance is added, B is the activity in Karmen units of GPT in a culture medium to which the hepatocyte-damaging substance is added; and C is the activity in Karmen units of GPT in a culture medium to which the hepatocyte-damaging substance is added together with 3-oxygermylpropionic acid.
# mice = assay: Acute toxicity test, per os, mice; format: in vivo
# Text: as §1
# [1] = orally, daily over three months
substance,measurement,setting,value
3-oxygermylpropionic acid [SK-818],general symptoms,SD rats and mice,"general symptoms of tranquilization, diarrhoea, vomiting and typhlectasis"
same,mortality,"SD masculine rats; At 4000 mg/kg, orally over three months",some animals died
same,dose at which the animals were absolutely poisoned,SD masculine rats; [1],1600 mg/kg
same,dose which had no toxic influence on the animals,SD masculine rats; [1],256 mg/kg
same,LD50,SD rats; female,"7,050 or more mg/kg"
same,LD50,SD rats; male,"7,700 or more mg/kg"
same,Number of animals with positive urinary protein levels,"MRL/1 masculine mice; 0.1 mg/kg, 16 week-age, positive = exceeding 100 mg/dl",4/15
same,Number of animals with positive urinary protein levels,"MRL/1 masculine mice; 0.1 mg/kg, 17 week-age",7/15
same,Number of animals with positive urinary protein levels,"MRL/1 masculine mice; 0.1 mg/kg, 18 week-age",10/15
same,"Blood-urinary nitrogen levels, BUN",MRL/1 masculine mice; 0.1 mg/kg,32.2±1.6
same,Number of animals with positive urinary protein levels,"MRL/1 masculine mice; 1 mg/kg, 16 week-age",4/15
same,Number of animals with positive urinary protein levels,"MRL/1 masculine mice; 1 mg/kg, 17 week-age",6/15
same,Number of animals with positive urinary protein levels,"MRL/1 masculine mice; 1 mg/kg, 18 week-age",8/15
same,"Blood-urinary nitrogen levels, BUN",MRL/1 masculine mice; 1 mg/kg,35.5±3.3
same,Number of animals with positive urinary protein levels,"MRL/1 masculine mice; 10 mg/kg, 16 week-age",2/15
same,Number of animals with positive urinary protein levels,"MRL/1 masculine mice; 10 mg/kg, 17 week-age",4/15
same,Number of animals with positive urinary protein levels,"MRL/1 masculine mice; 10 mg/kg, 18 week-age",8/15
same,"Blood-urinary nitrogen levels, BUN",MRL/1 masculine mice; 10 mg/kg,29.3±1.7
same,increase in the blood-urinary nitrogen levels,MRL/1 masculine mice; At 10 mg/kg,significantly inhibited
same,increase in the urinary protein levels,MRL/1 masculine mice; At 10 mg/kg,remarkably inhibited
same,glomeruli that become more morbid,"MRL/1 masculine mice; groups medicated with SK-818, control group 57 %",23-34%
same,GPT reductions,"rat's hepatocytes; 1-naphthylisothiocynate 188 »m, simultaneous addition",79%
same,GPT reductions,"rat's hepatocytes; 1-naphthylisothiocynate 188 »m, total addition",67%
same,GPT reductions,"rat's hepatocytes; calcium ionophore 10 »m, simultaneous addition",27%
same,GPT reductions,"rat's hepatocytes; calcium ionophore 10 »m, total addition",36%
same,GPT reductions,"rat's hepatocytes; cumene hydroperoxide 0.5 mM, simultaneous addition",63%
same,GPT reductions,"rat's hepatocytes; cumene hydroperoxide 0.5 mM, total addition",42%
same,GPT reductions,"rat's hepatocytes; galactosamine 0.35 mM, simultaneous addition",29%
same,GPT reduction,"rat's hepatocytes; only pre-addition, before the hepatocyte-damaging substance",No GPT reduction
same,LD50,mice; female,"5,800 or more mg/kg"
same,LD50,mice; male,"5,600 or more mg/kg"
